Article PMC3651934 (2011)

Assays:
Test in all cases: ITC
[1] = system: SAM-I riboswitch A1nC, G2nU, G3nU (RNA, riboswitch) GGCUUAUCAAGAGAGGUUUCGGGACUGGCCCGACGAAACCCGGCAACCAGAAAUGGUGCCAAUUCCUGCAGCGGAAACGUUGAAAGAUGAGCCG; conditions: 100 mM KCl, 10 mM MgCl2; 50 mM HEPES pH 7.5, 30 °C; 100 μM SAM titrated into 10 μM RNA; no heat evolved
[2] = system: SAM-I riboswitch A1nC (RNA, riboswitch) GGCUUAUCAAGAGAGGUGGCGGGACUGGCCCGACGAAACCCGGCAACCAGAAAUGGUGCCAAUUCCUGCAGCGGAAACGUUGAAAGAUGAGCCG; conditions: 100 mM KCl, 10 mM MgCl2; 50 mM HEPES pH 7.5, 30 °C; 100 μM SAM titrated into 10 μM RNA; no heat evolved
[3] = system: SAM-I riboswitch A1nU (RNA, riboswitch) GGCUUAUCAAGAGAGGUGGUGGGACUGGCCCGACGAAACCCGGCAACCAGAAAUGGUGCCAAUUCCUGCAGCGGAAACGUUGAAAGAUGAGCCG; conditions: 100 mM KCl, 10 mM MgCl2; 50 mM HEPES pH 7.5, 30 °C; 100 μM SAM titrated into 10 μM RNA; no heat evolved
[4] = system: SAM-I riboswitch G2nU, G3nU (RNA, riboswitch) GGCUUAUCAAGAGAGGUUUAGGGACUGGCCCGACGAAACCCGGCAACCAGAAAUGGUGCCAAUUCCUGCAGCGGAAACGUUGAAAGAUGAGCCG; conditions: 100 mM KCl, 10 mM MgCl2; 50 mM HEPES pH 7.5, 30 °C
[5] = system: SAM-I riboswitch, natural k-turn (RNA, riboswitch) GGCUUAUCAAGAGAGGUGGAGGGACUGGCCCGACGAAACCCGGCAACCAGAAAUGGUGCCAAUUCCUGCAGCGGAAACGUUGAAAGAUGAGCCG; conditions: 100 mM KCl, 10 mM MgCl2; 50 mM HEPES pH 7.5, 30 °C
[6] = system: SAM-I riboswitch G2nC (RNA, riboswitch) GGCUUAUCAAGAGAGGUGCAGGGACUGGCCCGACGAAACCCGGCAACCAGAAAUGGUGCCAAUUCCUGCAGCGGAAACGUUGAAAGAUGAGCCG; conditions: 100 mM KCl, 10 mM MgCl2; 50 mM HEPES pH 7.5, 30 °C; 100 μM SAM titrated into 10 μM RNA; no heat evolved
[7] = system: SAM-I riboswitch G2nA (RNA, riboswitch) GGCUUAUCAAGAGAGGUGAAGGGACUGGCCCGACGAAACCCGGCAACCAGAAAUGGUGCCAAUUCCUGCAGCGGAAACGUUGAAAGAUGAGCCG; conditions: 100 mM KCl, 10 mM MgCl2; 50 mM HEPES pH 7.5, 30 °C
[8] = system: SAM-I riboswitch G3nU (RNA, riboswitch) GGCUUAUCAAGAGAGGUUGAGGGACUGGCCCGACGAAACCCGGCAACCAGAAAUGGUGCCAAUUCCUGCAGCGGAAACGUUGAAAGAUGAGCCG; conditions: 100 mM KCl, 10 mM MgCl2; 50 mM HEPES pH 7.5, 30 °C

- binding [1]: no
- binding [2]: no
- binding [3]: no
- Kd [4]: 1950 ± 270 nM
- Kd [5]: 540 ± 250 nM
- binding [6]: no
- Kd [7]: 310 ± 60 nM
- Kd [8]: 340 ± 40 nM
SMILES: C[S+](CC[C@H](N)C(=O)O)C[C@H]1O[C@@H](n2cnc3c(N)ncnc32)[C@H](O)[C@@H]1O (some centres unmarked)
